What all share (experiment): two-electrode voltage clamp, Xenopus oocytes
Common to all, as to assay type: cell-based
(Two-electrode voltage clamp holds a large cell at a set potential and records current.)

Experiment [1] has as its target T1, TRPA1(A) (TRPA1(A)-exon10a) (Drosophila melanogaster, UniProt Q7Z020).
T1 construct: full-length isoform with exon1a-encoded N-terminus and exon10a-encoded BAT domain; cRNA-injected Xenopus laevis oocytes
T1 sequence (Q7Z020 1-1197): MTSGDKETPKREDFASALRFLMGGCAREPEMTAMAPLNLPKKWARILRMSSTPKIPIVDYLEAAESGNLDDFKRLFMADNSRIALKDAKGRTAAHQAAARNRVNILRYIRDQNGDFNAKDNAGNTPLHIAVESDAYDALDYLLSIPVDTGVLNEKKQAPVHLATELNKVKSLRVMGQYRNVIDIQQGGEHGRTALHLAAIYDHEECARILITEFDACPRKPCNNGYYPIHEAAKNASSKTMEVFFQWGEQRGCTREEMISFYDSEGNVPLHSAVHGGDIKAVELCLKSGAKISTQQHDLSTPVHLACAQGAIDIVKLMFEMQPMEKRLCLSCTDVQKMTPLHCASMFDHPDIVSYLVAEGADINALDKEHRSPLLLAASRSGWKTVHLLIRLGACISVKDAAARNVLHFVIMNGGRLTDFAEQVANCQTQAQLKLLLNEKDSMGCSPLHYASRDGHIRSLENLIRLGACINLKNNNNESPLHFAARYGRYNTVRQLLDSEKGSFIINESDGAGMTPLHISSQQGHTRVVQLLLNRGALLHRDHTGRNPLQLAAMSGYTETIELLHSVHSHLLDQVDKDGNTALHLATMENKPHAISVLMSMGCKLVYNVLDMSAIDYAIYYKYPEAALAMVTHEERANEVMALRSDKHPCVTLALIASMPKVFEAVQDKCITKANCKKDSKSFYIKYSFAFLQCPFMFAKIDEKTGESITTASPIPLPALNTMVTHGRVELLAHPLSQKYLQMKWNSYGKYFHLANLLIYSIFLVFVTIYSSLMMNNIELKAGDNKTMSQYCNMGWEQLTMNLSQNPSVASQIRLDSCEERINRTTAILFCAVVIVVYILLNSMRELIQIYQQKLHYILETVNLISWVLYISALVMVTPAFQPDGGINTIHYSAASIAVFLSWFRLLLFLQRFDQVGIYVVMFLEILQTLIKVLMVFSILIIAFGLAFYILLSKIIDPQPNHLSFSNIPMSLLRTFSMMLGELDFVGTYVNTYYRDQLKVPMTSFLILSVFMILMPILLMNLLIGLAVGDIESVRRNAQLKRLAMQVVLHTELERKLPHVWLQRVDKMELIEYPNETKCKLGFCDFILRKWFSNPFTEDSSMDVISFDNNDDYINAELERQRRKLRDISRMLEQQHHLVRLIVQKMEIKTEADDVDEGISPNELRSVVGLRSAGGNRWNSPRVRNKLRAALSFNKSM

For experiment [2], the target named is T2, agTRPA1(A) (Anopheles gambiae, UniProt A0A1S4GN50).
T2 construct: isoform with TRPA1(A)-type N-terminus and exon6a-encoded BAT; cRNA-injected Xenopus laevis oocytes
T2 sequence (A0A1S4GN50 1-1208): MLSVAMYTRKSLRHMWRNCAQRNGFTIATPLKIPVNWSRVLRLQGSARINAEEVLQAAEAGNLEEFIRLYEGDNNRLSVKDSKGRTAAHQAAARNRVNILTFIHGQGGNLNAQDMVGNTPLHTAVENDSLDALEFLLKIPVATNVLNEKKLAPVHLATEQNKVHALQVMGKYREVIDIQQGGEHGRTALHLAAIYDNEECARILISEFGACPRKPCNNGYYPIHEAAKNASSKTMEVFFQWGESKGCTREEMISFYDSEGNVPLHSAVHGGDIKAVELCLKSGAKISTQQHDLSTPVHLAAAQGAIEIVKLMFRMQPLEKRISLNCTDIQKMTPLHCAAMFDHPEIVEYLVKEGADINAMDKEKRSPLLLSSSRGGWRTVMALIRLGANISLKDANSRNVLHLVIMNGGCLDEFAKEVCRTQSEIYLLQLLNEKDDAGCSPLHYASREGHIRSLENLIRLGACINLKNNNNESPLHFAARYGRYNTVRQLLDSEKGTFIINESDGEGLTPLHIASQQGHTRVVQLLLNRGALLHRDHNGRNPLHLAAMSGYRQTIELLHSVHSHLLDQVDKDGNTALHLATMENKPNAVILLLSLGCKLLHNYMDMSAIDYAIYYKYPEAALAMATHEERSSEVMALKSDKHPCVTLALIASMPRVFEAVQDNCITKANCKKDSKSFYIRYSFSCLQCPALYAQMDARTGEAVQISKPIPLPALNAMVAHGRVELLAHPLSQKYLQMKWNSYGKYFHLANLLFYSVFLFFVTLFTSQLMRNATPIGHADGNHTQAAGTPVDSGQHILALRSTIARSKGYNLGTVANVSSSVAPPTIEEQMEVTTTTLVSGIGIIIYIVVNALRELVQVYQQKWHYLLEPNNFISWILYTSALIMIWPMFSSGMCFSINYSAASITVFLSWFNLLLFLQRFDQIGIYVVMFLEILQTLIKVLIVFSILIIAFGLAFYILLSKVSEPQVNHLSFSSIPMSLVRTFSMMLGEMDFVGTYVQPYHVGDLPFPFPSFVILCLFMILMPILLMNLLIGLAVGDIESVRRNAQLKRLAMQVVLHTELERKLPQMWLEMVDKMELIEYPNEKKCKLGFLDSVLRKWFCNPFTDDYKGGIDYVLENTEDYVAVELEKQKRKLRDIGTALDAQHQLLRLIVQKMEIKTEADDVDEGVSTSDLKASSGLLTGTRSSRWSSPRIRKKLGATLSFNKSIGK

Experiment [3] deals with T3, humTRPA1 (Homo sapiens, UniProt O75762).
T3 construct: gene TRPA1; human TRPA1; cRNA-injected Xenopus laevis oocytes (electrophysiology as for insect TRPA1s)
T3 sequence (O75762 whole entry): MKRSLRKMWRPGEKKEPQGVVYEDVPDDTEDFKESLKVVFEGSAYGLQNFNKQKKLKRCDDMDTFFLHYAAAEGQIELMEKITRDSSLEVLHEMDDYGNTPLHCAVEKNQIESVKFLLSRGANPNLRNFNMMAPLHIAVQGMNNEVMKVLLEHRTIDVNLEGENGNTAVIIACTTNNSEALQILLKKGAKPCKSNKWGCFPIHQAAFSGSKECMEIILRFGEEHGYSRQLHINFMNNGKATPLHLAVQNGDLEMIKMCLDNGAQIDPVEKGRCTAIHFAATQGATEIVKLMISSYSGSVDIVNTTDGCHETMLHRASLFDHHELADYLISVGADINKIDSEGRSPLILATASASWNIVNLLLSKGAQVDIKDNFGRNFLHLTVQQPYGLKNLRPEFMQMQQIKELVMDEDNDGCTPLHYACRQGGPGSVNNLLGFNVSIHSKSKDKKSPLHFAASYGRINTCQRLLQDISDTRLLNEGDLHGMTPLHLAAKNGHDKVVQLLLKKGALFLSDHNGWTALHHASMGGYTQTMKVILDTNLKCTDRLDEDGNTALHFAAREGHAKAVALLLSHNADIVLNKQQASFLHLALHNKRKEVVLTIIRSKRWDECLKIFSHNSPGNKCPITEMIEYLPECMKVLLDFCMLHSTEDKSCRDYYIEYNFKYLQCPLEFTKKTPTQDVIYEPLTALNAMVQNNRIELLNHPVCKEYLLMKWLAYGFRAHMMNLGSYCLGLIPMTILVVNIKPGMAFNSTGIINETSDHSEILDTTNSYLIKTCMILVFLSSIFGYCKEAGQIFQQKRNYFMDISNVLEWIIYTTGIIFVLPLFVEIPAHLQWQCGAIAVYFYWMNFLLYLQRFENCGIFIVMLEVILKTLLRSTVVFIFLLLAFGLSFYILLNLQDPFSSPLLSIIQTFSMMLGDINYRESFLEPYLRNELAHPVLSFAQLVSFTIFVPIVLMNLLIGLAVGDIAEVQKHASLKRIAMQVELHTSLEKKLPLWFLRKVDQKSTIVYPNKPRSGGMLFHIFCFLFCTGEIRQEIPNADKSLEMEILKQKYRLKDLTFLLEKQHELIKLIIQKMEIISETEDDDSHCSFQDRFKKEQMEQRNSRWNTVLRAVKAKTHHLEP

The target of experiment [4] is T4, agTRPA1(B) (Anopheles gambiae, UniProt B3G3I7).
T4 construct: isoform with TRPA1(B)-type N-terminus and exon6a-encoded BAT; cRNA-injected Xenopus laevis oocytes
T4 sequence (B3G3I7 1-1248): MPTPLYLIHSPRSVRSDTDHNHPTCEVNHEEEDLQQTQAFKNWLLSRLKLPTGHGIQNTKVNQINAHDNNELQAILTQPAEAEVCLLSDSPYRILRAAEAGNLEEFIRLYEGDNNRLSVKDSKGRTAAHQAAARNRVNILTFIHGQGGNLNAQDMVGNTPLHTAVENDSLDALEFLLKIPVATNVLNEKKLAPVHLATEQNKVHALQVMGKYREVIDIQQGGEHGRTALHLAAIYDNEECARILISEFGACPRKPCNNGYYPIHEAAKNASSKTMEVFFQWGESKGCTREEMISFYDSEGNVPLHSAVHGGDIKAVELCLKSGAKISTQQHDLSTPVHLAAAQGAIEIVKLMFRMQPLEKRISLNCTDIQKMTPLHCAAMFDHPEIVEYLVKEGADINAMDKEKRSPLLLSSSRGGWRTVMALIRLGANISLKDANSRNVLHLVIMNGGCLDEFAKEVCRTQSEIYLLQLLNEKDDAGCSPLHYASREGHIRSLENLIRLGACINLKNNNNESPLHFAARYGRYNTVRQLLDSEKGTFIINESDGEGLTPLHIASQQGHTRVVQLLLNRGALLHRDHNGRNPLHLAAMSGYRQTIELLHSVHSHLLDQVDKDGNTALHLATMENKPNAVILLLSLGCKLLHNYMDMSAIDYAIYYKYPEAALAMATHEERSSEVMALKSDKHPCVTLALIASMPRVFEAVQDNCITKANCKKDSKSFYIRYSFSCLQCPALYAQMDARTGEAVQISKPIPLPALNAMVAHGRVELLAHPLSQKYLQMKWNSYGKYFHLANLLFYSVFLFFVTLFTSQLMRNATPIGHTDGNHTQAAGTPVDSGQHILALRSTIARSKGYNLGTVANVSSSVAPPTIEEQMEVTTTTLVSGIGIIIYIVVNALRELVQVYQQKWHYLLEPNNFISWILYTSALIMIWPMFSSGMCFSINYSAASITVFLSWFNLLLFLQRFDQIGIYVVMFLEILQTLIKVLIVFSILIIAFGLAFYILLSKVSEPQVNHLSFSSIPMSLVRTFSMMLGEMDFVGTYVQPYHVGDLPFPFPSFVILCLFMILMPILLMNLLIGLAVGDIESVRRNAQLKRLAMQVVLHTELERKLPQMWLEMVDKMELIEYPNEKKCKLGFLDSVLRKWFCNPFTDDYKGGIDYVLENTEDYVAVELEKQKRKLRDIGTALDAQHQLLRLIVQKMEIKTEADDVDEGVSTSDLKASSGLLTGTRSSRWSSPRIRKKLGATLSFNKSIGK

Molecules are shown by their SMILES.

Consider `CN1C(=O)C=CC1=O` [N-methyl maleimide], for which the EC50 was 13.6 ± 0.6 µM in experiment [1], 43.8 ± 3.9 µM in experiment [2], 5.1 ± 0.5 µM in experiment [3] and 39.5 ± 1.1 µM in experiment [4].

In general, EC50 refers to the concentration giving half of the maximal effect. High values mean lower potency in that assay, low ones higher potency in that assay.

These data come from publication PMC11471635, “Linkage of alternative exon assembly in Drosophila TrpA1 transcripts” (Molecules and Cells, 2024).
